Measurements: paper PMC9823811, “Anti-Microbial Activity of Aliphatic Alcohols from Chinese Black Cardamom (Amomum tsao-ko) against Mycobacterium tuberculosis H37Rv” (Plants, 2022)
In brackets after ≈: the same amount, converted by molar mass.

Columns and labels:
[1] = Cytotoxicity against Vero cells (resazurin); details: African green monkey
[2] = test system: M. tuberculosis H37Rv (ATCC 27294); test: Microplate Alamar Blue Assay (MABA), MIC against replicating M. tuberculosis; type: cell-based, Mycobacterium tuberculosis; details: 7 days at 37 °C; for MIC: Mycobacterium tuberculosis, 168 h
[3] = test system: non-replicating M. tuberculosis H37Rv_LuxABCDE; test: Low oxygen recovery assay (LORA), MIC against non-replicating M. tuberculosis; type: cell-based, Mycobacterium tuberculosis; details: for MIC: Mycobacterium tuberculosis; for MIC / MIC against M. tuberculosis H37Rv, LORA: non-replicating M. tuberculosis H37Rv, low oxygen
[4] = test system: Vero cells (ATCC CRL-1586); details: African green monkey, 72 h
[5] = test system: Vero cells (ATCC CRL-1586); test: Cytotoxicity against Vero cells (resazurin); details: Vero cells, 72 h
[6] = MIC = lowest concentration reducing fluorescence by 90%

| Compound | IC50 at 72 h ([1]; Vero cells (ATCC CRL-1586)) [µg/mL] | MIC [2, 6] [µg/mL] | MIC ([2]; […]) [µg/mL] | MIC [3] [µg/mL] | also measured |
| --- | --- | --- | --- | --- | --- |
| OC/C=C/CCCCCCCO [Compound 2, (E)-2-decene-1,10-diol] | > 200 | 29.7 (≈ 172 µM) | > 20 | 95.4 (≈ 554 µM) | Vero cytotoxicity, percentage in parentheses after the IC50 bound [4]: 25% |
| OC/C=C/CCCC/C=C/CO [Compound 5, (2E,8E)-2,8-decadiene-1,10-diol] | 72.9 (≈ 428 µM) | 4.3 (≈ 25.3 µM) | < 10 | 5.9 (≈ 34.7 µM) |  |
| CC(=O)OC/C=C/CC/C=C/COC(C)=O [Compound 6, (2E,6E)-1,8-diacetoxy-2,6-octadiene] | 76.8 (≈ 339 µM) | 26.1 (≈ 115 µM) | > 20 | > 100 |  |
| CCCCCCC/C=C/C=O [Compound 7, (E)-decenal] |  | > 100 |  | > 100 |  |
| CCCCCCC/C=C/C(O)C(C)=O (stereo not drawn) [Compound 8, (E)-1-acetyl-2-decene-1-ol] |  | > 100 |  | > 100 |  |
| CCCCCCCCC/C=C/C(O)C(C)=O (stereo not drawn) [Compound 9, (E)-1-acetyl-2-dodecene-1-ol] |  | > 100 |  | > 100 |  |
| CC(C)=CCC/C(C)=C/CO [Compound 10, geraniol] |  |  | > 100 | > 100 |  |
| CC(=O)OC/C=C(\C)CCC=C(C)C [Compound 11, geranyl acetate] |  | 88.6 | > 20 | > 100 | IC50 at 72 h [1]: > 200 µg/mL |
| C=C[C@](C)(O)CC/C=C(\C)CCC=C(C)C [Compound 12, (3R)-(E)-nerolidol] |  | > 100 |  | > 100 |  |
| NNC(=O)c1ccncc1 [Isoniazid, reference compound] |  | 0.03 (≈ 0.219 µM) |  | > 18 |  |
| CC(=O)NC[C@H]1CN(c2ccc(N3CCOCC3)c(F)c2)C(=O)O1 [Linezolid, reference compound] |  | 0.16 (≈ 0.474 µM) |  | 0.62 (≈ 1.84 µM) |  |
| CO[C@H]1/C=C/O[C@@]2(C)Oc3c(C)c(O)c4c(O)c(c(/C=N/N5CCN(C)CC5)c(O)c4c3C2=O)NC(=O)/C(C)=C\C=C\[C@H](C)[C@H](O)[C@@H](C)[C@@H](O)[C@@H](C)[C@H](OC(C)=O)[C@@H]1C [Rifampicin, reference compound] | > 100 | 0.025 (≈ 0.0304 µM) |  | 0.14 (≈ 0.17 µM) |  |
| CC(=O)OC/C=C/CCCC/C=C/CO [Synthetic tsaokol A, tsaokol A] | > 200 | 1.4 (≈ 6.59 µM) |  |  | Cytotoxicity against Vero Cells IC50 [5]: identical to those of the isolated tsaokol A (3); Vero cytotoxicity, percentage in parentheses after the IC50 bound [4]: 10% |
| (2E,8E)-1,10-diacetyl-2,8-decadiene-1,10-diol [Compound 4] |  |  |  |  | Cytotoxicity against Vero Cells IC50 [5]: 143.6 µg/mL; MIC against M. tuberculosis H37Rv, MABA [2, 6]: 1.1 µg/mL; MIC against M. tuberculosis H37Rv, MABA ([2]; […]): lower than 10 µg/mL; MIC against M. tuberculosis H37Rv, LORA [3]: 21.6 µg/mL |
| (2E,8E)-1-acetyl-2,8-decadiene-1,10-diol [Compound 3] |  |  |  |  | Cytotoxicity against Vero Cells IC50 [5]: > 200 µg/mL; MIC against M. tuberculosis H37Rv, MABA [2, 6]: 0.6 µg/mL; MIC against M. tuberculosis H37Rv, MABA ([2]; […]): lower than 10 µg/mL; Ratio of non-replicating MIC (LORA) over replicating MIC (MABA) ([3]; LORA MIC relative to MABA MIC): only two-fold higher; MIC against M. tuberculosis H37Rv, LORA [3]: 1.4 µg/mL |
| (E)-1-acetyl-8-decene-1,10-diol [Compound 1] |  |  |  |  | Cytotoxicity against Vero Cells IC50 [5]: > 200 µg/mL; MIC against M. tuberculosis H37Rv, MABA [2, 6]: 10.2 µg/mL; MIC against M. tuberculosis H37Rv, MABA ([2]; […]): lower than 10 µg/mL; MIC against M. tuberculosis H37Rv, LORA [3]: 61.5 µg/mL |
